Data on ten compounds can be found in patent publication US20230372498A1, “PLK1 SELECTIVE DEGRADATION INDUCING COMPOUND” (UPPTHERA, priority 2020, published 2023).

This experiment deals with T1, PLK1 (Homo sapiens, UniProt P53350).
T1 construct: endogenous in cells; host or cells: HeLa
The experiment is described as follows: PLK1 protein degradation in HeLa cells, Western blotting (PLK1/GAPDH ratio). The format is cell-based. Conditions: 6 hours compound incubation; for DC50: measured only if the grade of Dmax is A or B; for Dmax: thymidine block and release, 10 points three-fold from 3 μM, PLK1 to GAPDH ratio, read-out: Dmax. From the text: The HeLa cell line was purchased from Korea Cell Line Bank (KCLB), Seoul, Korea. The passage in cell culture was maintained at P115 to P125.
For cell culture, DMEM (Gibco, Cat. No. 1195-65; Lot. No. 2085318), FBS (Gibco, Cat. No. 16000-044; Lot. No. 2097593), Penicillin/Streptomycin (PS) (Gibco, Cat. No. 15140-122; Lot. No. 2058855), 100 mm^2 cell culture dish (SPL, Cat. No. 20100), 150 mm^2 cell culture dish (SPL, Cat. No. 20150), 12-well culture plate (SPL, Cat. No. 30012), PBS pH 7.4 (Gibco, Cat. No. 10010-023; Lot. No. 2085080), TrypLE™ Express (Gibco, Cat. No. 12605-010; Lot No. 2070638), Counting Chamber (Hematocytometer) (Hirschmann, Cat. No. 8100204), and 0.4% Trypan Blue Solution (DYNEBIO, Cat. No. CBT3710; Lot. No. 20190723) were used.
2×10^5 cells were seeded for each well of a 12-well plate (SPL), and the cells were cultured in the culture medium in a total volume of 2 ml.
The compounds of Examples were completely dissolved in DMSO and used in the experiment, and thymidine was completely dissolved in DW and used in the experiment. For thymidine block, the products were treated with 2 mM of thymidine (Sigma-Aldrich Cat. No. T9250-5G) and then incubated for 24 hours.
For release and chemical treatment, the medium was suctioned and washed 3 times with 1×PBS. Complete media was added, followed by incubation for 4 hours in a CO2 incubator. Each compound was diluted three folds from the highest concentration of 3 μM to the lowest concentration in 10 points and then incubated for 6 hours again.
For SDS-PAGE and Western blotting, 1×RIPA lysis buffer (Rockland, Cat. No. MB-030-0050; Lot no. 39751), 100× Protease Inhibitor Cocktail (Quartett, Cat. No. PPI1015; Lot no. PCO50038424), Pierce™ BCA protein assay kit (ThermoScientific, Cat. No. 23225; Lot no. UC276876), albumin standard (ThermoScientific, Cat. No. 23209; Lot no. UB269561), 4-15% Mini-PROTEAN TGX stain-free gel (Bio-rad, Cat. No. 4568085; Lot no. L007041B), 10× Tris/Glycine/SDS buffer (Bio-rad, Cat. No. 1610732; Lot no. 10000044375B); 10×TBS (Bio-rad, Cat. No. 1706435; Lot no. 1000045140B), 10% Tween 20 (Cat. No. 1610781; Lot no. L004152B), Color protein standard broad range (NEB, Cat. No. P7719S; Lot no. 10040349), 4× Laemmli sample buffer (Bio-rad, Cat. No. 1610747; Lot no. L004133B), β-mercaptoethanol (Sigma-Aldrich, Cat. No. M3148; Lot no. 60-24-2), SuperBlock™ T20 (TBS) blocking buffer (ThermoScientific, Cat. No. 37536; Lot no. UC282578), 1M sodium azide solution (Sigma-Aldrich, Cat. No. 08591-1 mL-F; Lot no. BCBV4989), α-Rabbit pAb to Ms IgG (abcam, Cat. No. ab97046; Lot no. GR3252115-1), α-Goat pAb to Rb IgG (CST, Cat. No. 7074S; Lot no. 28), α-GAPDH (abcam, Cat. No. ab8245; Lot no. GR3275542-2), α-Plk1 (CST, Cat. No. 208G4), α-BRD4 (CST, Cat. No. 13440S), ECL™ Prime western blotting reagents (GE Healthcare, Cat. No. RPN2232; Lot no. 17001655), Ponceau S solution (Sigma-Aldrich, Cat. No. P7170; Lot no. SLBV4112), Difco™ Skim milk (BD, Cat. No. 232100; Lot no. 8346795), and iBlot® 2 NC Regular stacks (Invitrogen, Cat. No. IB323001; Lot no. 2NR110619-02) were used.
For cell harvesting, the cells were first separated from the plate using trypsin and then washed with the medium and PBS. Specifically, the medium was suctioned off and washed with 1 mL of PBS, and PBS was suctioned off. The cells were treated with 0.5 mL TrypLE™ Express at 37° C. for 7 minutes to separate the cells, and then 0.5 mL of complete medium was added to collect 1 mL of cell culture solution. Then, 1 mL of the cell collection solution was centrifuged at 8,000 rpm for 120 seconds, and the supernatant was removed. After washing with 0.2 mL of PBS, the PBS was removed.
For cell lysis, a lysis buffer was added and cell debris was removed to obtain a cell lysate. Specifically, the cells were treated with 70 μL of 1×RIPA buffer containing a protease inhibitor and incubated for 30 minutes on ice. Then, the cells were centrifuged at 4° C. and 15,000 rpm for 10 minutes to obtain a cell lysate. […]
(Immunoblotting shows a protein as a band on a membrane.)

A value given as a limit tells only on which side of the number the result lay.

T1 sequence (P53350 whole entry): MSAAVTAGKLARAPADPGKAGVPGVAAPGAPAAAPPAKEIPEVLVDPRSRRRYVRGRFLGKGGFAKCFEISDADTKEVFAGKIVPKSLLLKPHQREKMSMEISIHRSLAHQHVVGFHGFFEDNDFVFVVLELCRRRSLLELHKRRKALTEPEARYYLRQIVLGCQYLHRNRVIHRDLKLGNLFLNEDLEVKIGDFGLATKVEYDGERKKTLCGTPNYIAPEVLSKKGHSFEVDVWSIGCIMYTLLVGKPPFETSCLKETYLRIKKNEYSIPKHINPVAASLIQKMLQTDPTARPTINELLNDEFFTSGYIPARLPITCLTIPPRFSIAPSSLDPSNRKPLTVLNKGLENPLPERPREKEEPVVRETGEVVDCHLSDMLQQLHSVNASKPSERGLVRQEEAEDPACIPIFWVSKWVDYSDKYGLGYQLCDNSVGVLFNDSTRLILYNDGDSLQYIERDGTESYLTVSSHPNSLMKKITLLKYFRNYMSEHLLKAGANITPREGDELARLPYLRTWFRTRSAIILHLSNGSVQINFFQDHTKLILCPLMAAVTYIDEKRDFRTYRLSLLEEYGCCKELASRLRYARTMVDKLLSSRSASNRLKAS

As to `COc1cc(C(=O)NC2CN(CCOCCOCCNc3cccc4c3C(=O)N(C3CCC(=O)NC3=O)C4=O)C2)c(F)cc1Nc1ncc2c(n1)N(C1CCCC1)CC(F)(F)C(=O)N2C` (stereo not drawn) [Compound 123, 4-((9-cyclopentyl-7,7-difluoro-5-methyl-6-oxo-6,7,8,9-tetrahydro-5H-pyrimido[4,5-b][1,4]diazepin-2-yl)amino)-N-(1-(2-(2-(2-((2-(2,6-dioxopiperidin-3-yl)-1,3-dioxoisoindolin-4-yl)amino)ethoxy)ethoxy)ethyl)azetidin-3-yl)-2-fluoro-5-methoxybenzamide], the DC50 – broadly, the midpoint of the concentration-degradation curve – was no more than 0.05 µM and the Dmax (as a rule, the greatest extent of degradation seen) is no less than 80%.

Consider `COc1cc(C(=O)NC2CCN(CCOCCOCCOCCOCCNc3cccc4c3CN(C3CCC(=O)NC3=O)C4=O)CC2)c(F)cc1Nc1ncc2c(n1)N(C1CCCC1)CC(F)(F)C(=O)N2C` (stereo not drawn) [Compound 76, 4-((9-cyclopentyl-7,7-difluoro-5-methyl-6-oxo-6,7,8,9-tetrahydro-5H-pyrimido[4,5-b][1,4]diazepin-2-yl)amino)-N-(1-(14-((2-(2,6-dioxopiperidin-3-yl)-1-oxoisoindolin-4-yl)amino)-3,6,9,12-tetraoxatetradecyl)piperidin-4-yl)-2-fluoro-5-methoxybenzamide], for which the DC50 is no more than 0.5 µM and the Dmax was 60 to 80%.

For the compound `COc1cc(C(=O)NC2CCN(CCOCCOCCOCCNc3cccc4c3C(=O)N(C3CCC(=O)NC3=O)C4=O)CC2)c(F)cc1Nc1ncc2c(n1)N(C1CCCC1)CC(F)(F)C(=O)N2C` (stereo not drawn) [Compound 3, 4-((9-cyclopentyl-7,7-difluoro-5-methyl-6-oxo-6,7,8,9-tetrahydro-5H-pyrimido[4,5-b][1,4]diazepin-2-yl)amino)-N-(1-(2-(2-(2-(2-((2-(2,6-dioxopiperidin-3-yl)-1,3-dioxoisoindolin-4-yl)amino)ethoxy)ethoxy)ethoxy)ethyl)piperidin-4-yl)-2-fluoro-5-methoxybenzamide], the DC50 is no more than 0.05 µM and the Dmax is no less than 80%.

For `COc1cc(C(=O)NC2CCN(Cc3ccc(OCCOCCOCCNc4cccc5c4C(=O)N(C4CCC(=O)NC4=O)C5=O)cc3)CC2)c(F)cc1Nc1ncc2c(n1)N(C1CCCC1)CC(F)(F)C(=O)N2C` (stereo not drawn) [Compound 41, 4-((9-cyclopentyl-7,7-difluoro-5-methyl-6-oxo-6,7,8,9-tetrahydro-5H-pyrimido[4,5-b][1,4]diazepin-2-yl)amino)-N-(1-(4-(2-(2-(2-((2-(2,6-dioxopiperidin-3-yl)-1,3-dioxoisoindolin-4-yl)amino)ethoxy)ethoxy)ethoxy)benzyl)piperidin-4-yl)-2-fluoro-5-methoxybenzamide], the DC50 is no more than 0.05 µM and the Dmax is no less than 80%.

For `COc1cc(C(=O)NC2CCN(CCOCCOCCOCCOCCCc3cccc4c3C(=O)N(C3CCC(=O)NC3=O)C4=O)CC2)c(F)cc1Nc1ncc2c(n1)N(C1CCCC1)CC(F)(F)C(=O)N2C` (stereo not drawn) [Compound 53, 4-((9-cyclopentyl-7,7-difluoro-5-methyl-6-oxo-6,7,8,9-tetrahydro-5H-pyrimido[4,5-b][1,4]diazepin-2-yl)amino)-N-(1-(15-(2-(2,6-dioxopiperidin-3-yl)-1,3-dioxoisoindolin-4-yl)-3,6,9,12-tetraoxapentadecyl)piperidin-4-yl)-2-fluoro-5-methoxybenzamide], the DC50 was no more than 0.05 µM and the Dmax was no less than 80%.

For `COc1cc(C(=O)NC2CCN(CCCCCCCCCCNc3cccc4c3C(=O)N(C3CCC(=O)NC3=O)C4=O)CC2)c(F)cc1Nc1ncc2c(n1)N(C1CCCC1)CC(F)(F)C(=O)N2C` (stereo not drawn) [Compound 14, 4-((9-cyclopentyl-7,7-difluoro-5-methyl-6-oxo-6,7,8,9-tetrahydro-5H-pyrimido[4,5-b][1,4]diazepin-2-yl)amino)-N-(1-(10-((2-(2,6-dioxopiperidin-3-yl)-1,3-dioxoisoindolin-4-yl)amino)decyl)piperidin-4-yl)-2-fluoro-5-methoxybenzamide], the Dmax is less than 60%.

Take `CN1C(=O)C(F)(F)CN(C2CCCC2)c2nc(Nc3ccc(C(=O)NCCCOCCCOCCNc4cccc5c4C(=O)N(C4CCC(=O)NC4=O)C5=O)cc3)ncc21` (stereo not drawn) [Example 170, 4-((9-cyclopentyl-7,7-difluoro-5-methyl-6-oxo-6,7,8,9-tetrahydro-5H-pyrimido[4,5-b][1,4]diazepin-2-yl)amino)-N-(3-(3-(2-((2-(2,6-dioxopiperidin-3-yl)-1,3-dioxoisoindolin-4-yl)amino)ethoxy)propoxy)propyl)benzamide]: the greatest degradation seen (Dmax) is no less than 80%.

For `COc1cc(C(=O)NC2CCN(Cc3ccc(OCCNc4cccc5c4C(=O)N(C4CCC(=O)NC4=O)C5=O)cc3)CC2)c(F)cc1Nc1ncc2c(n1)N(C1CCCC1)CC(F)(F)C(=O)N2C` (stereo not drawn) [Compound 40, 4-((9-cyclopentyl-7,7-difluoro-5-methyl-6-oxo-6,7,8,9-tetrahydro-5H-pyrimido[4,5-b][1,4]diazepin-2-yl)amino)-N-(1-(4-(2-((2-(2,6-dioxopiperidin-3-yl)-1,3-dioxoisoindolin-4-yl)amino)ethoxy)benzyl)piperidin-4-yl)-2-fluoro-5-methoxybenzamide], the half-maximal degradation concentration (DC50) was no more than 0.5 µM and the Dmax fell in the range of 60 to 80%.

For `COc1cc(C(=O)NC2CCN(CCOCCOCCOCCNC(=O)COc3cccc4c3C(=O)N(C3CCC(=O)NC3=O)C4=O)CC2)c(F)cc1Nc1ncc2c(n1)N(C1CCCC1)CC(F)(F)C(=O)N2C` (stereo not drawn) [Compound 57, 4-((9-cyclopentyl-7,7-difluoro-5-methyl-6-oxo-6,7,8,9-tetrahydro-5H-pyrimido[4,5-b][1,4]diazepin-2-yl)amino)-N-(1-(1-((2-(2,6-dioxopiperidin-3-yl)-1,3-dioxoisoindolin-4-yl)oxy)-2-oxo-6,9,12-trioxa-3-azatetradecan-14-yl)piperidin-4-yl)-2-fluoro-5-methoxybenzamide], the DC50 is no more than 0.5 µM and the maximal degradation (Dmax) was 60 to 80%.

In the case of `COc1cc(C(=O)NCCCCCCCC(=O)Nc2cccc3c2C(=O)N(C2CCC(=O)NC2=O)C3=O)c(F)cc1Nc1ncc2c(n1)N(C1CCCC1)CC(F)(F)C(=O)N2C` (stereo not drawn) [Compound 158, 4-((9-cyclopentyl-7,7-difluoro-5-methyl-6-oxo-6,7,8,9-tetrahydro-5H-pyrimido[4,5-b][1,4]diazepin-2-yl)amino)-N-(8-((2-(2,6-dioxopiperidin-3-yl)-1,3-dioxoisoindolin-4-yl)amino)-8-oxooctyl)-2-fluoro-5-methoxybenzamide], the half-maximal degradation concentration (DC50) was no more than 0.5 µM and the Dmax was in the range of 60 to 80%.
